Reference: paper PMC9705902, “Enzymatic Characterization and Comparison of Two Steroid Hydroxylases CYP154C3-1 and CYP154C3-2 from Streptomyces Species” (Journal of Microbiology and Biotechnology, 2021)

Legend:
[1] = target: T1, CYP154C3-2 (Streptomyces sp., UniProt A0A7S9IUH5); assay: type I spectral shift titration (A390-A420), tight-binding quadratic fit
T1 construct: full-length CDS 1,254 bp (417 residues), N-terminal Trx-His-S-enterokinase fusion from pET32a(+) kept, E. coli C41(DE3), ~65 kDa on SDS-PAGE (~45 kDa theoretical without fusion), heme protein
T1 sequence (A0A7S9IUH5 1-417): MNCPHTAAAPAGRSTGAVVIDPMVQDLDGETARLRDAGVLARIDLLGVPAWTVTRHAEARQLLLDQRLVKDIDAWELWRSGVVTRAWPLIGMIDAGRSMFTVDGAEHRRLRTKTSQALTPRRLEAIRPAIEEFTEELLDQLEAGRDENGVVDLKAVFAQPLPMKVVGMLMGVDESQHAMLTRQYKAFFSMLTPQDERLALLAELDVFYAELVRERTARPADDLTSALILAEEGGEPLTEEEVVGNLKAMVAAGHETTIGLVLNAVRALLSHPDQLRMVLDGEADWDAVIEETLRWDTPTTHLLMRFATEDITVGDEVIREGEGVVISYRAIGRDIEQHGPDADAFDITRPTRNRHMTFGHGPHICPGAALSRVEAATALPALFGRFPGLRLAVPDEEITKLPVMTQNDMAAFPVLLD
Description: type I spectral shift titration (A390-A420), tight-binding quadratic fit on CYP154C3-2

[2] = target: T2, CYP154C3-1 (Streptomyces sp., UniProt A0A2H4WK73); assay: as above; set-up: species or system Streptomyces sp. W2061
T2 construct: full-length CDS 1,239 bp (412 residues), N-terminal Trx-His-S-enterokinase fusion from pET32a(+) kept, E. coli C41(DE3), ~65 kDa on SDS-PAGE (~45 kDa theoretical without fusion), heme protein
Description: type I spectral shift titration (A390-A420), tight-binding quadratic fit on CYP154C3-1

T2 sequence (A0A2H4WK73 1-414): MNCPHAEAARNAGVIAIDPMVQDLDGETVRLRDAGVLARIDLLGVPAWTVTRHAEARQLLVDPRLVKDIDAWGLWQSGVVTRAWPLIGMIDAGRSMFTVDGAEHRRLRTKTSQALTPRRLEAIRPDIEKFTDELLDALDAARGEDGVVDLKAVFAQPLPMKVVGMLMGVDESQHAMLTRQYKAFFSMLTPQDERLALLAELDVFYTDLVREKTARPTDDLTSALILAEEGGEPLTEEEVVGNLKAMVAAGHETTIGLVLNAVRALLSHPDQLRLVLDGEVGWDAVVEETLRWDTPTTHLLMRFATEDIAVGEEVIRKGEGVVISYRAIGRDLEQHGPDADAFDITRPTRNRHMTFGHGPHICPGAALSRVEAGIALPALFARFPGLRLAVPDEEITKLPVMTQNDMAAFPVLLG

| SMILES | Kd [1] [µM] | Kd [2] [µM] |
| --- | --- | --- |
| CC(=O)[C@H]1CC[C@H]2[C@@H]3CCC4=CC(=O)CC[C@]4(C)[C@H]3CC[C@]12C [compound 9, Progesterone] | 0.409 ± 0.037 | – |
| C[C@]12CCC(=O)C=C1CC[C@@H]1[C@@H]2C(=O)C[C@]2(C)C(=O)CC[C@@H]12 [compound 1, Adrenosterone] | 0.443 ± 0.035 | 0.318 ± 0.026 |
| C[C@]12CCC(=O)C=C1CC[C@@H]1[C@@H]2CC[C@]2(C)C(=O)CC[C@@H]12 [compound 2, Androstenedione] | 0.475 ± 0.054 | 0.351 ± 0.033 |
| C[C@]12CC[C@H]3[C@@H](CCC4=CC(=O)CC[C@@H]43)[C@@H]1CC[C@@H]2O [compound 6, Nandrolone] | 6.58 ± 0.84 | 13.5 ± 2.62 |
| C[C@]12C[C@H](O)[C@H]3[C@@H](CCC4=CC(=O)CC[C@@]43C)[C@@H]1CC[C@@H]2C(=O)CO [compound 3, Corticosterone] | 44.5 ± 3.97 | 14.1 ± 2.57 |
